The experiment deals with full-length ATR (Homo sapiens (Human), UniProt Q13535). The experiment can be described thus: ATR Inhibition Assay (radioactive-phosphate incorporation). Type of experiment: biochemical. Conditions: read-out: ATR Ki. The method in brief:
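Ki(app) was derived by non-linear regression of background-corrected initial rates of 33P incorporation into an 800 μM target peptide, read by phosphocellulose filter scintillation counting. Reaction conditions: 5 nM full-length ATR, 10 μM [γ-33P]ATP, pH 7.5 Tris buffer with MgCl2 and DTT, 25 °C, 10-min preincubation, 24 h run.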

Sequence of full-length ATR (Q13535 whole entry): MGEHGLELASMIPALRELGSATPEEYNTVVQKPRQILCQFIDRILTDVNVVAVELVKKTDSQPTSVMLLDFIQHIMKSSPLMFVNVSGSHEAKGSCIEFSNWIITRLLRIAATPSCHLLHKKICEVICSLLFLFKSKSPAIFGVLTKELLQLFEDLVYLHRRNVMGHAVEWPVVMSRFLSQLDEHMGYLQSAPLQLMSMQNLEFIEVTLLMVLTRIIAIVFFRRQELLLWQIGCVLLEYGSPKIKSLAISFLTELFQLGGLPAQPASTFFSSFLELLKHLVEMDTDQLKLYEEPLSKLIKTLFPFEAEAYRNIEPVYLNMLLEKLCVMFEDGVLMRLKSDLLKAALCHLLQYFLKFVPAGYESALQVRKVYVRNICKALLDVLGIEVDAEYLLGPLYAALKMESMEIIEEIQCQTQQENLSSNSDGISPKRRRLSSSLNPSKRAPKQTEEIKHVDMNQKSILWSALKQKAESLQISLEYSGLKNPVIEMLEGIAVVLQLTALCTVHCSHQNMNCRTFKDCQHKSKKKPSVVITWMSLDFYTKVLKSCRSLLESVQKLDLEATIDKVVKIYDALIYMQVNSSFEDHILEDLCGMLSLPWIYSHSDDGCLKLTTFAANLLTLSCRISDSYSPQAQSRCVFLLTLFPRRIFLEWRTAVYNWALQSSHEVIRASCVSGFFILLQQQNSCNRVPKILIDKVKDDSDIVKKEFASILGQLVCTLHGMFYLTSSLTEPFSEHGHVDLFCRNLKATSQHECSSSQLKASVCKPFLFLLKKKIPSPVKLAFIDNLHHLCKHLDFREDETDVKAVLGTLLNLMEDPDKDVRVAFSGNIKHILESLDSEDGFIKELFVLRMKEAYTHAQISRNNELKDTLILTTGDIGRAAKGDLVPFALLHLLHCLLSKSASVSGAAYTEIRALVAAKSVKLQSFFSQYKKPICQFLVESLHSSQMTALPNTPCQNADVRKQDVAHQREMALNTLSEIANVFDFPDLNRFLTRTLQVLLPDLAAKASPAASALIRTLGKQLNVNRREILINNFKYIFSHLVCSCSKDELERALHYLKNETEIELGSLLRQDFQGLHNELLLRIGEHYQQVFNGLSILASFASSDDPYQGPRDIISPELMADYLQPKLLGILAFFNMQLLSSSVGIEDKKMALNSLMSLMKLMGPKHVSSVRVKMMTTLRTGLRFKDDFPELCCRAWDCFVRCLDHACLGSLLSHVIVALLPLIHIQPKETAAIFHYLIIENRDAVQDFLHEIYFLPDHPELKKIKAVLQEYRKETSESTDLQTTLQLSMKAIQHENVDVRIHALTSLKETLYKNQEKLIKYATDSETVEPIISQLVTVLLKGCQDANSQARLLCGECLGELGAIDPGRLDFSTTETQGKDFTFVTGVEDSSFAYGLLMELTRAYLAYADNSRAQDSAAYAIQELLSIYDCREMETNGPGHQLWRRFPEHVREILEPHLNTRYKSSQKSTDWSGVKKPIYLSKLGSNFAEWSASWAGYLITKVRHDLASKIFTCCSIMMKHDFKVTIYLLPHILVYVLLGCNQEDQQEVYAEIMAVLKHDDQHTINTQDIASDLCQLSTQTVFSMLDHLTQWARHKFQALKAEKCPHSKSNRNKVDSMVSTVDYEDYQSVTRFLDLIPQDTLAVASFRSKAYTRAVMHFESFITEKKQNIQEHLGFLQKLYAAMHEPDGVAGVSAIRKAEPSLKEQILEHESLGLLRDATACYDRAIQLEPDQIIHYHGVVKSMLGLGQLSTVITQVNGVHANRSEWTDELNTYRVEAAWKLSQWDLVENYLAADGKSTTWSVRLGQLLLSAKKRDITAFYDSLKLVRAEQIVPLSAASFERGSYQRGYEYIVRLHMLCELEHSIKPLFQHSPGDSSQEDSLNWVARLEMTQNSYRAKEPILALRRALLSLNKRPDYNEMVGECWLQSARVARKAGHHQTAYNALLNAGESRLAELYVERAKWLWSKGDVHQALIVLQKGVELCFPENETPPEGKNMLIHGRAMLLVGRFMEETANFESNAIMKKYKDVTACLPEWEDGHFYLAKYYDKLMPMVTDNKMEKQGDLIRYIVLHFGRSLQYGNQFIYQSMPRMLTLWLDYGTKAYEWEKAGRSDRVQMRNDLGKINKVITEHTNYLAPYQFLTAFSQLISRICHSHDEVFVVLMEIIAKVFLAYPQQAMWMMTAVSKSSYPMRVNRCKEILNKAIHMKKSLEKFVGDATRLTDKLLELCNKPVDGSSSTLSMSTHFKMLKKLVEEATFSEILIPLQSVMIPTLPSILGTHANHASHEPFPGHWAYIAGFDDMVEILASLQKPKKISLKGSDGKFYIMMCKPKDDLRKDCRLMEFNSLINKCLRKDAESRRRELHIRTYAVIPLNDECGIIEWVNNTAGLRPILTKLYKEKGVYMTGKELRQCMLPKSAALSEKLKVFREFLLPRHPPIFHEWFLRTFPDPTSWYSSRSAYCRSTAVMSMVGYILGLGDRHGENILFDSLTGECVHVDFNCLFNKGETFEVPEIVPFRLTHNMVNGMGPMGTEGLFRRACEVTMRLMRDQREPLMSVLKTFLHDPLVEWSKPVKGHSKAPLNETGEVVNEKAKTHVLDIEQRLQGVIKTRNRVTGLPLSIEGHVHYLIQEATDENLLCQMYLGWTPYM

Take `CC(=O)c1ccc(-c2cnc(N)c(-c3nnc(-c4ccccc4)o3)n2)cc1` [IA-110, 1-[4-[5-amino-6-(5-phenyl-1,3,4-oxadiazol-2-yl)pyrazin-2-yl]phenyl]ethanone]: the Ki (usually the dissociation constant of the complex between target and ligand, obtained from inhibition or displacement) lay within 10 to 100 nM.
For the molecule `Nc1ncc(-c2ccc(C(=O)N3CCCCC3)cc2)nc1C(=O)Nc1ccccc1` [Compound I-78, 3-amino-N-phenyl-6-(4-(piperidine-1-carbonyl)phenyl)pyrazine-2-carboxamide], the Ki was in the range of 10 to 100 nM.
For the molecule `Nc1ncc(-c2ccc3ncccc3c2)nc1-c1nnc(-c2ccccc2)o1` [IA-63], the inhibition constant (Ki) was 10 to 100 nM.
The value for `CS(=O)(=O)c1ccc(-c2cnc(N)c(-c3nc4ccc(C#N)cc4[nH]3)n2)cc1` [Compound I-111, 2-(3-amino-6-(4-(methylsulfonyl)phenyl)pyrazin-2-yl)-1H-benzo[d]imidazole-6-carbonitrile] was 10 to 100 nM; that for `COc1ccccc1NC(=O)c1nc(-c2cccc(C(N)=O)c2)cnc1N` [Compound I-27, 3-amino-6-(3-carbamoylphenyl)-N-(2-methoxyphenyl)pyrazine-2-carboxamide] was 10 to 100 nM.
With `Nc1ncc(-c2ccc(N3CCOCC3)nc2)nc1-c1nnc(-c2ccccc2)o1` [IA-283, 5-(6-morpholino-3-pyridyl)-3-(5-phenyl-1,3,4-oxadiazol-2-yl)pyrazin-2-amine], the Ki was in the range of 10 to 100 nM.
On to `COc1ccccc1NC(=O)c1nc(-c2ccoc2)cnc1N` [Compound I-37, 3-amino-6-(furan-3-yl)-N-(2-methoxyphenyl)pyrazine-2-carboxamide], for which the Ki lay within 10 to 100 nM.
`Nc1ncc(-c2ccc(C(=O)N3CCC(CO)CC3)cc2)nc1C(=O)Nc1ccccc1` [Compound I-79, 3-amino-6-(4-(4-(hydroxymethyl)piperidine-1-carbonyl)phenyl)-N-phenylpyrazine-2-carboxamide]: the Ki lay within 10 to 100 nM.
For the molecule `CNCc1ccc(-c2nnc(-c3nc(-c4ccc(S(=O)(=O)C(C)C)cc4Cl)cnc3N)o2)cc1` [IA-316, 5-(2-chloro-4-isopropylsulfonyl-phenyl)-3-[5-[4-(methylaminomethyl)phenyl]-1,3,4-oxadiazol-2-yl]pyrazin-2-amine], the Ki is no more than 10 nM.
On to `CS(=O)(=O)c1ccc(-c2cnc(N)c(C(=O)Nc3nc4ccccc4[nH]3)n2)cc1` [Compound V-11], for which the Ki is no more than 10 nM.
For the molecule `Nc1ncc(-c2ccc(C(=O)N3CCCC3)cc2)nc1C(=O)Nc1ccccc1` [Compound I-70, 3-amino-N-phenyl-6-(4-(pyrrolidine-1-carbonyl)phenyl)pyrazine-2-carboxamide], the Ki was 10 to 100 nM.
The value for `CNCc1ccc(-c2nnc(-c3nc(-c4ccc(S(=O)(=O)C(C)C)c(Cl)c4)cnc3N)o2)cc1` [IA-305, 5-(3-chloro-4-isopropylsulfonyl-phenyl)-3-[5-[4-(methylaminomethyl)phenyl]-1,3,4-oxadiazol-2-yl]pyrazin-2-amine] was no more than 10 nM; that for `CC(C)S(=O)(=O)c1ccc(-c2cnc(N)c(-c3cc(-c4ccc(CNCCO)cc4)no3)n2)cc1` [IIA-9, 2-(4-(5-(3-amino-6-(4-(isopropylsulfonyl)phenyl)pyrazin-2-yl)isoxazol-3-yl)benzylamino)ethanol] was no more than 10 nM.
As to `C[S+]([O-])c1ccccc1-c1cnc(N)c(-c2nnc(-c3ccccc3)o2)n1` (stereo not drawn) [IA-241, 5-(2-methylsulfinylphenyl)-3-(5-phenyl-1,3,4-oxadiazol-2-yl)pyrazin-2-amine], the Ki was no more than 10 nM.
The value for `CNCc1ccc(-c2nnc(-c3nc(-c4ccc(S(=O)(=O)C5CCOCC5)cc4)cnc3N)o2)cc1` [IA-323, 3-[5-[4-(methylaminomethyl)phenyl]-1,3,4-oxadiazol-2-yl]-5-(4-tetrahydropyran-4-ylsulfonylphenyl)pyrazin-2-amine] was no more than 10 nM.
As for `CNCc1ccc(-c2nnc(-c3nc(-c4ccc(S(C)(=O)=O)cc4)cnc3N)o2)cc1` [IA-288, 3-[5-[4-(methylaminomethyl)phenyl]-1,3,4-oxadiazol-2-yl]-5-(4-methylsulfonylphenyl)pyrazin-2-amine], the inhibitory constant (Ki) is no more than 10 nM.
Turning to `Nc1ncc(-c2cccc3ccccc23)nc1-c1nnc(-c2ccccc2)o1` [IA-93, 5-(1-naphthyl)-3-(5-phenyl-1,3,4-oxadiazol-2-yl)pyrazin-2-amine], the Ki is 100 to 5000 nM.
In the case of `CN(C)C(=O)c1ccc(-c2cnc(N)c(-c3nnc(-c4ccc[nH]c4=O)o3)n2)cc1` [IA-53], the inhibition constant (Ki) was 10 to 100 nM.
Take `N#Cc1ccc(-c2cnc(N)c(-c3nc4ccccc4[nH]3)n2)cc1` [Compound I-129, 4-(5-amino-6-(1H-benzo[d]imidazol-2-yl)pyrazin-2-yl)benzonitrile]: the inhibitory constant (Ki) was in the range of 10 to 100 nM.
`Nc1ncc(-c2cccc(O)c2)nc1-c1nc2ccccc2[nH]1` [Compound I-126, 3-(5-amino-6-(1H-benzo[d]imidazol-2-yl)pyrazin-2-yl)phenol]: the inhibition constant Ki was 100 to 5000 nM.
The same measure for `CC(C)S(=O)(=O)c1ccc(-c2cnc(N)c(-c3nnc(-c4ccc(C(C)(C)N)cc4)o3)n2)cc1` [IA-311, 3-[5-[4-(1-amino-1-methyl-ethyl)phenyl]-1,3,4-oxadiazol-2-yl]-5-(4-isopropylsulfonylphenyl)pyrazin-2-amine]: no more than 10 nM.
As to `CN(C)C(=O)c1ccc(-c2cnc(N)c(-c3nnc(Nc4ccccc4Cl)o3)n2)cc1` [IA-151, 4-[5-amino-6-[5-(2-chloroanilino)-1,3,4-oxadiazol-2-yl]pyrazin-2-yl]-N,N-dimethyl-benzamide], the inhibition constant (Ki) is 10 to 100 nM.
The value for `Nc1ncc(-c2cccnc2)nc1C(=O)Nc1ccccc1F` [Compound I-96, 3-amino-N-(2-fluorophenyl)-6-(pyridin-3-yl)pyrazine-2-carboxamide] was 100 to 5000 nM; that for `Cc1ccc(-c2nnc(-c3nc(-c4ccc(C(=O)N(C)C)cc4)cnc3N)o2)s1` [IA-245, 4-[5-amino-6-[5-(5-methyl-2-thienyl)-1,3,4-oxadiazol-2-yl]pyrazin-2-yl]-N,N-dimethyl-benzamide] was 10 to 100 nM.
Consider `CN(C)[C@@H]1CCN(S(=O)(=O)c2ccc(-c3cnc(N)c(-c4nnc(-c5ccccc5)o4)n3)cc2)C1` [IA-25], for which the Ki lay within 10 to 100 nM.
`CC(C)S(=O)(=O)c1ccc(-c2cnc(N)c(-c3nnc(N4CCC(N)CC4)o3)n2)cc1` [IA-109, 3-[5-(4-amino-1-piperidyl)-1,3,4-oxadiazol-2-yl]-5-(4-isopropylsulfonylphenyl)pyrazin-2-amine]: the Ki was in the range of 100 to 5000 nM.
With `CC(C)S(=O)(=O)c1ccc(-c2cnc(N)c(-c3nnc(-c4ccc(CNCCF)cc4F)o3)n2)cc1` [IA-340, 3-[5-[2-fluoro-4-[(2-fluoroethylamino)methyl]phenyl]-1,3,4-oxadiazol-2-yl]-5-(4-isopropylsulfonylphenyl)pyrazin-2-amine], the Ki is no more than 10 nM.
With `Nc1ncc(-c2ccccc2C(F)(F)F)nc1-c1nnc(-c2ccccc2)o1` [IA-174, 3-(5-phenyl-1,3,4-oxadiazol-2-yl)-5-[2(-trifluoromethyl)phenyl]pyrazin-2-amine], the Ki lay in the range of 100 to 5000 nM.
The value for `N#Cc1cccn1-c1cnc(N)c(-c2nnc(-c3ccccc3)o2)n1` [IA-264, 1-[5-amino-6-(5-phenyl-1,3,4-oxadiazol-2-yl)pyrazin-2-yl]pyrrole-2-carbonitrile] was no more than 10 nM; that for `Nc1ncc(-c2ccccc2CO)nc1-c1nc2ccccc2[nH]1` [Compound I-127, (2-(5-amino-6-(1H-benzo[d]imidazol-2-yl)pyrazin-2-yl)phenyl)methanol] was 100 to 5000 nM.

Values taken from patent US10479784B2, “Substituted pyrazin-2-amines as inhibitors of ATR kinase” (Vertex Pharmaceuticals Incorporated, priority 2008, dated 2019).
